*1 amine or outer side, *2 acyl side, *3 side chain or, on linkers, in order; H or OH if unused. Where a SMILES comes first, the peptide text is derived from it. Bridges are numbered along the chain shown (N, C = ends). [ ]: non-standard residue; d: D form. The star is where a group is joined. 5FAM = O=C1OC2(c3ccc(O)cc3Oc3cc(O)ccc32)c2ccc(C(=O)*)cc21; Palmitoleoyl = CCCCCC/C=C\CCCCCCCC(=O)*; Glutaryl = O=C(CCCC(=O)[*:2])[*:1]; NMeA = CN[C@@H](C)C(=O)O
Key:
[1] = mouse, in vivo, iv, 10 mg/kg
Description: (§1) 200 μL of peptide was administered by IV injection into the tail vein of C57BL6 mice at a dose of 10 mg/kg. 50 μL blood samples were taken at various time points by orbital bleeding using heparin coated capillary tubes and isoflurane for anesthesia. Samples are diluted to 600 μLin TE buffer (pH=8.0) then filtered by centrifugation through a 3000 MWCO filter. The flowthrough was analyzed on a Shimadzu RF-5301 PC fluorometer. Time points were integrated and analyzed using Prism 5.0 software.
(§2) To that end mice were administered peptide conjugated to fluorescein by IV injection into the tail vein. Blood samples were taken by orbital bleeding. Blood peptide concentration was determined by comparing fluorescence to a 15 minute time point.

[2] = mouse, iv
Description: as §1, §2

[3] = design: species or system C57BL6 mice; conditions: mouse, in vivo, 10 mg/kg
Description: The following peptides were synthesized for oral administration: […](FAM) (SEQ ID NO: 14), […](FAM)DK(Palmitoleic acid) (SEQ ID NO: 15), and […](FAM) (SEQ ID NO: 16), wherein FAM is a lysine derivative containing fluorescein. All peptides were cyclized from the side chain to lysine to the N-terminus as previously described. Anesthetized C57BL6 mice had peptide administered at a dose of 10 mg/kg by oral gavage. After administration, mice were removed from isoflurane. At various time points, blood samples were taken by orbital bleeding as previously described. Peaks were normalized to a 15 minute time point from mice that had peptide administered by IV injection.
The following peptides were synthesized for oral administration: […](FAM) (SEQ ID NO: 14), […](FAM) (SEQ ID NO: 16), […](FAM)DK(biotin) (SEQ ID NO: 38), and […](FAM)DK(Palmitoleic acid) (SEQ ID NO: 15). All peptides were cyclized from the side chain to lysine to the N-terminus as previously described in Millward, S. W. et al. (2007) ACS Chem. Biol. 2:625. Anesthetized C57BL6 mice had peptide administered at a dose of 10 mgs/Kg by oral gavage. After administration, mice were removed from isoflurane. At various time points, blood samples were taken by orbital bleeding as previously described. Peaks were normalized to a 20 minute time point from mice that had peptide administered by IV injection. Area under the curve was analyzed by Graphpad 5.0.
In addition to accessing intracellular targets in cell culture, deriving a simple modification that would facilitate oral bioavailability of peptidic ligands would be greatly beneficial for therapeutic development. Intestinal absorption of both fatty acids and biotin is nearly 100% efficient. Zempleni, J. and Mock, D. M. (1999) The American Journal of Clinical Nutrition 69:504. […] Applicants synthesized a protease resistant peptide with the sequence […]-mod (designated SUPR peptide) (SEQ ID NO: 50), where A is N-methyl alanine, the peptide is cyclized from lysine to the N-terminus, and K(mod) is lysine with a modified sidechain including either biotin or palmitoleic acid. Palmitoleic acid is a monounsaturated fatty acid chosen for its ability to bind human serum albumin, and its low melting point allowing for more favorable solubility of conjugated peptides as compared to […] fatty acid conjugates. This peptide was administered to mice at a dose of 10 mg/kg by oral gavage. At various time points, blood was taken from the mice by orbital bleeding. After processing, fluorescence was quantified and compared to the maximum signal obtained by IV injection of peptide at the same dose.

[4] = b
Text: Table printed on a drawing sheet, FIGURES 5A and 5B
FIG. 5A is Vmax for chymotrypsin digestion of cycGIBP(•), linSUPR(♦), and cycSUPR(▪). A close up of linSUPR and cycSUPR is embedded in the Figure to show the data in more detail. FIG. 5B is a Table showing values for Km and Vmax as derived by processing the data through Graphpad Prism 5.0. Both Km and Vmax are highly optimized for protease resistance in cycSUPR peptide when compared to cycGIBP.
First reader's note: Km and Vmax are kinetic parameters of chymotrypsin digestion of the peptides (protease stability); the sheet prints no unit for Km.

[5] = PAMPA (parallel artificial membrane permeability assay); assay type: in vitro ADME; conditions: lauric acid in place of biotin
Description: PAMPA assays were set up following manufacturer's instructions. Briefly, 1% phosphatidyl choline (Sigma) was dissolved in dodecane (Sigma) at 65° C. for 3 min. The membrane was applied to each well as per manufacturer's instructions. […] 100 μL of sample was put into each donor well. The acceptor wells contained 300 μL of a 5% DMSO in PBS solution. Passive diffusion was allowed to occur at room temperature for 24 hrs. […] Absorbance at 215 nm was monitored. The area under the peptide peak was integrated.
The acceptor well contained 10 mM DTT as a reducing agent. Data was collected after 6, 12 and 24 hrs. Absorbance at 280 nm was analyzed. The following formula was used to calculate Log Pe: […]
Applicants employed a parallel artificial membrane permeability assay (PAMPA) that will allow for the rapid screening of peptide passive diffusion across a phospholipid bilayer. (Schmidt, et al. (2003) J. Millipore Corporation Application Note AN1729EN00.). In this assay, two chambers are separated by a phospholipid bilayer supported on an inert membrane. Applicants chose to initially focus Applicants examination on peptide ligands developed to bind with high affinity to the heterotrimeric G-proteins Gαi1*GDP and Gα12*GDP. Ja, W. W., et al. (2004) Biochemistry 43:9265; Millward, S. W., et al. (2007) ACS Chem. Biol. 2:625; Fiacco, S. et al. (2008) ChemBioChem 9:2200. These ligands included variations in sequence, size, overall charge, and polarity as well as comparing linear and cyclic peptides, end and biotinylation. […] According to classical methods of increasing permeability. Pinski, C. A., et al. (2001) Advanced Drug Delivery Reviews 46:3. Applicants postulated that the removal of hydrogen bond donors by N-methylation should further increase the permeability of this peptide.

[6] = Membrane localization on PAMPA membrane; assay type: in vitro ADME; conditions: 0.2 mM peptide, 0 and 15 min
Text: Membrane was set up as described above. […] Care was taken not to disrupt the membrane when samples were removed.
In order to study the mechanism of this enhanced permeation in more detail, Applicants quantitated the biotin-peptide conjugate's membrane localization.

CCCCCC/C=C\CCCCCCCC(=O)NCCCC[C@@H](NC(=O)[C@H](CCCCNC(=O)c1ccc2c(c1)C(=O)OC21c2ccc(O)cc2Oc2cc(O)ccc21)NC(=O)[C@@H]1CCCCNC(=O)CCCC(=O)N[C@@H](CCSC)C(=O)N[C@@H](Cc2ccccc2)C(=O)N[C@@H](Cc2ccc(O)cc2)C(=O)N(C)[C@@H](C)C(=O)N[C@@H](Cc2ccc(O)cc2)C(=O)N[C@@H](CCC(=O)O)C(=O)N[C@@H](Cc2ccc(O)cc2)C(=O)N(C)[C@@H](C)C(=O)N[C@@H](CCC(N)=O)C(=O)N[C@@H](Cc2c[nH]c3ccccc23)C(=O)N[C@@H](CO)C(=O)N1)C(=O)O [FA-cycSUPR] (MFY[NMeA]YEY[NMeA]QWSKK(5FAM)[dK](Palmitoleoyl)-OH; linker N-12 via Glutaryl)
half-life [1]: 1100 min | fold increase in in vivo half-life over cycGIBP [2]: 354 fold | bioavailability [3]: 9.8% | oral uptake efficiency ([3]; po): 9.4%

CC[C@H](C)[C@@H]1NC(=O)[C@H](CCSC)NC(=O)CCCC(=O)NCCCC[C@@H](C(N)=O)NC(=O)[C@H]([C@@H](C)O)NC(=O)CNC(=O)[C@H](C)NC(=O)[C@H](C(C)C)NC(=O)[C@H](Cc2ccccc2)NC(=O)[C@H](CCC(=O)O)NC(=O)[C@H](Cc2ccc(O)cc2)NC(=O)[C@H](Cc2c[nH]c3ccccc23)NC(=O)[C@H]([C@@H](C)O)NC1=O [cycGIBP] (MITWYEFVAGTK-NH2; linker N-12 via Glutaryl)
Vmax [4]: 37 nmol/s

CCCCCCCCCCCC(=O)O [Lauric acid]
Log Pe [5]: −6.8 | membrane localization [6]: 27%

Reference: patent publication US20180312539A1, “METHODS FOR PREPARING HIGH THROUGHPUT PEPTIDOMIMETICS, ORALLY BIOAVAILABLE DRUGS AND COMPOSITIONS CONTAINING SAME” (University of Southern California, priority 2011, published 2018)
